Measured values reported in ChEMBL document CHEMBL5036321, “Sinularamides A-G, Terpenoid-Derived Spermidine and Spermine Conjugates with Casitas B-Lineage Lymphoma Proto-Oncogene B (Cbl-b) Inhibitory Activities from a Sinularia sp. Soft Coral” (J Nat Prod, 2021).
pIC50: −log10 of the molar value.

Target: E3 ubiquitin-protein ligase CBL-B (Homo sapiens, UniProt Q13191)
Test: Inhibition of Cbl-b (unknown origin) assessed as inhibition of Cbl-b dependent auto-ubiquitination in presence of ATP measured after 13 hrs by fluorescence microplate reader assay

E3 ubiquitin-protein ligase CBL-B, sequence (Q13191 whole entry): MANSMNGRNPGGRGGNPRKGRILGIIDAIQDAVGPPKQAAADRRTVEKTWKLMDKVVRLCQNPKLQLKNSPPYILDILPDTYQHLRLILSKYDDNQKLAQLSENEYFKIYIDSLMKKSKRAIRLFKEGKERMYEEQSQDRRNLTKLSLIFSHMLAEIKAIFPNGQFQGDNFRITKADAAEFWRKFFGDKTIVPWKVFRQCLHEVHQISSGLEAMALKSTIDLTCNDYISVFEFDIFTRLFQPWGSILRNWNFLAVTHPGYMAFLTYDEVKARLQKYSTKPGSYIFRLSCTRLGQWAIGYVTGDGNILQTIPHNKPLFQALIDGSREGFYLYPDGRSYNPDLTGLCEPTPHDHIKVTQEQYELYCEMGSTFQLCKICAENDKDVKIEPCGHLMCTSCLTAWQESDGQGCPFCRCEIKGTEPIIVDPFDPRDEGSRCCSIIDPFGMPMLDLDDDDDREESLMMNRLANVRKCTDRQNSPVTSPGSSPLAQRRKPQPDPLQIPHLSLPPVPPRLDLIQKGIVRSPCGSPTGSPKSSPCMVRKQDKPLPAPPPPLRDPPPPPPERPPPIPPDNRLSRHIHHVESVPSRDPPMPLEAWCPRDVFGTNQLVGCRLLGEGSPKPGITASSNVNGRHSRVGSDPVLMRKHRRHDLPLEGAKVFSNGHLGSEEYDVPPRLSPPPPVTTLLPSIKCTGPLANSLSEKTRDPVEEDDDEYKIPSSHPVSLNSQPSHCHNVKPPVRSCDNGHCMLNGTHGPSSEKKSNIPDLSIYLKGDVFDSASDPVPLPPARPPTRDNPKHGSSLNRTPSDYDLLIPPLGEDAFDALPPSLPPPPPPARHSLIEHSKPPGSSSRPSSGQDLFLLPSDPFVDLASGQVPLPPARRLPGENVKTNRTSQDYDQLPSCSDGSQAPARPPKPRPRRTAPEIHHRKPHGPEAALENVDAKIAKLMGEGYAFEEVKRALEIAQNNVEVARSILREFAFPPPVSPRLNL

CC(C)=CCC/C(C)=C/CC/C(C)=C/CC/C(C)=C/C(=O)NCCC[N+](C)(C)CCCC[N+](C)(C)CCCNC(=O)/C=C(\C)CC/C=C(\C)CC/C=C(\C)CCC=C(C)C
pIC50: 5.19
